Experiments:
Erk1/2 phosphorylation = test: Erk1/2 Phosphorylation Assay (western blot), Panc-1; format: cell-based, human; conditions: at 10 μM, * = activation
In short: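 KRas G12D Panc-1 cells were treated 6 h at 37° C with compound at 10 μM or serial dilutions for IC50 (0.3% DMSO). In method 1, cells were serum-starved overnight (0.5% FBS) and then given 1.5 ng/ml EGF for 15 min. In method 2, cells stayed in 10% FBS without stimulation. Lysate phospho-Erk1/2 (Thr202/Tyr204) was read by western blot.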

[1] = test system: Smad2/Smad3 phosphorylation; test: Phospho-Smad2/3 Inhibition Assay (western blot), Panc-1; format: cell-based, human; conditions: at 10 μM, Panc-1 pancreatic cancer cell line; starred symbols = activation
In short: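 Panc-1 cells (KRas G12D), starved overnight in 0.5% FBS, treated 3 h at 37° C with compound at 10 μM final (0.3% DMSO) or serial dilutions for IC50, then stimulated with 10 ng/ml TGF-b1 for 1 h. Phospho-Smad2 (Ser465/467) and phospho-Smad3 (Ser423/425) detected by western blot.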

Structure (SMILES)	% inh of Erk1/2 phosphorylation in Panc-1 (Erk1/2 phosphorylation)	% inh of Smad2/3 phosphorylation in Panc-1 [1]
CO[C@H]1CC[C@H](Nc2nc(-c3nccn3C)nn3cc(-c4cccnc4)c(-c4ccccc4)c23)C1 (racemic) [Compound 194, rac N-((1S,3S)-3-Methoxycyclopentyl)-2-(1-methyl-1H-imidazol-2-yl)-5-phenyl-6-(pyridin-3-yl)pyrrolo[2,1-f][1,2,4]triazin-4-amine]	D* (85-100% activation)	A (A = 1-25% inhibition)
CO[C@H]1CC[C@H](Nc2nc(-c3nccn3C)nn3cc(-c4ccn(C)n4)c(C(=O)NCC(F)(F)F)c23)C1 (racemic) [Compound 181, 4-(((1S,3S)-3-Methoxycyclopentyl)amino)-2-(1-methyl-1H-imidazol-2-yl)-6-(1-methyl-1H-pyrazol-3-yl)-N-(2,2,2-trifluoroethyl)pyrrolo[2,1-f][1,2,4]triazine-5-carboxamide]	A (1-25% inhibition)	A (A = 1-25% inhibition)
CO[C@H]1CC[C@@H](Nc2nc(-c3nccn3C)nn3cc(-c4ccncc4)c(-c4ccccc4)c23)C1 (racemic) [Compound 200, rac N-((1R,3S)-3-Methoxycyclopentyl)-2-(1-methyl-1H-imidazol-2-yl)-5-phenyl-6-(pyridin-4-yl)pyrrolo[2,1-f][1,2,4]triazin-4-amine]	D* (85-100% activation)	A (A = 1-25% inhibition)
CO[C@H]1CC[C@H](Nc2nc(-c3nccn3C)nn3cc(-c4ccn(C)n4)c(C(=O)NC4CC4)c23)C1 (racemic) [Compound 182, rac N-Cyclopropyl-4-(((1S,3S)-3-methoxycyclo-pentyl)amino)-2-(1-methyl-1H-imidazol-2-yl)-6-(1-methyl-1H-pyrazol-3-yl)pyrrolo[2,1-f][1,2,4]triazine-5-carboxamide]	A* (1-25% activation)	A* (A* = 1-25% activation)
Cc1c(-c2ccn(C)n2)cn2nc(-c3nccn3C)nc(Nc3ccc(OC(F)(F)F)cn3)c12 [Compound 232, 5-Methyl-2-(1-methyl-1H-imidazol-2-yl)-6-(1-methyl-1H-pyrazol-3-yl)-N-(5-(trifluoro-methoxy)pyridin-2-yl)pyrrolo[2,1-f][1,2,4]triazin-4-amine]	B* (26-49% activation)	B (B = 26-45% inhibition)
Cn1ccnc1-c1nc(O)c2c(-c3ccccc3)c(-c3cccnc3)cn2n1 [Compound 189, 2-(1-Methyl-1H-imidazol-2-yl)-5-phenyl-6-(pyridin-3-yl)pyrrolo[2,1-f][1,2,4]triazin-4-ol]	A* (1-25% activation)	B (B = 26-45% inhibition)
CO[C@H]1C[C@H](Nc2nc(-c3nccn3C)nn3cc(-c4ccc(CCN)cc4)c(-c4ccccc4)c23)C1.Cl [Compound 207, 6-(4-(2-Aminoethyl)phenyl)-N-((1r,3r)-3-methoxycyclobutyl)-2-(1-methyl-1H-imidazol-2-yl)-5-phenylpyrrolo[2,1-f][1,2,4]triazin-4-amine hydrochloride salt]	D* (85-100% activation)	D (D = 76-100% inhibition)
CO[C@H]1C[C@H](Nc2nc(-c3nccn3C)nn3cc(-c4cccc(CN)c4)c(-c4ccccc4)c23)C1 [Compound 204, 6-(3-(aminomethyl)phenyl)-N-((1r,3r)-3-methoxycyclobutyl)-2-(1-methyl-1H-imidazol-2-yl)-5-phenylpyrrolo[2,1-f][1,2,4]triazin-4-amine]	D* (85-100% activation)	A (A = 1-25% inhibition)
Cc1c(-c2ccn(C)n2)cn2nc(-c3nccn3C)nc(Nc3ccc(N(C)C)cn3)c12 [Compound 227, N5,N5-Dimethyl-N2-(5-methyl-2-(1-methyl-1H-imidazol-2-yl)-6-(1-methyl-1H-pyrazol-3-yl)pyrrolo[2,1-f][1,2,4]triazin-4-yl)pyridine-2,5-diamine]	C* (46-84% activation)	C (C = 46-75% inhibition)
COCCNc1nc(-c2nccn2C)nn2cc(-c3cccc(OC)c3Cl)c(C)c12 [Compound 16, 6-(2-Chloro-3-methoxyphenyl)-N-(2-methoxyethyl)-5-methyl-2-(1-methyl-1H-imidazol-2-yl)pyrrolo[2,1-f][1,2,4]triazin-4-amine]	A (1-25% inhibition)	0 (0 = 0% inhibition)
CO[C@H]1CC[C@H](Nc2nc(-c3nccn3C)nn3cc(-c4ccn(C)n4)c(C(=O)NCCN4CCOCC4)c23)C1 (racemic) [Compound 185, rac 4-(((1S,3S)-3-methoxycyclo-pentyl)amino)-2-(1-methyl-1H-imidazol-2-yl)-6-(1-methyl-1H-pyrazol-3-yl)-N-(2-morpholino-ethyl)pyrrolo[2,1-f][1,2,4]triazine-5-carboxamide]	B (26-49% inhibition)	B* (B* = 26-45% activation)
CO[C@H]1C[C@H](Nc2nc(-c3nccn3C)nn3cc(-c4cccc(OCCN)c4)c(-c4ccccc4)c23)C1 [Compound 205, 6-(3-(2-Aminoethoxy)phenyl)-N-((1r,3r)-3-methoxycyclobutyl)-2-(1-methyl-1H-imidazol-2-yl)-5-phenylpyrrolo[2,1-f][1,2,4]triazin-4-amine]	D* (85-100% activation)	D (D = 76-100% inhibition)
COc1cc(Nc2nc(-c3nccn3C)nn3cc(-c4ccn(C)n4)c(C)c23)ncc1F [Compound 237, N-(5-Fluoro-4-methoxypyridin-2-yl)-5-methyl-2-(1-methyl-1H-imidazol-2-yl)-6-(1-methyl-1H-pyrazol-3-yl)pyrrolo[2,1-f][1,2,4]triazin-4-amine]	0 (0% inhibition)	A (A = 1-25% inhibition)
CO[C@H]1C[C@H](Nc2nc(-c3nccn3C)nn3cc(-c4ccncc4)c(-c4ccccc4)c23)C1 [Compound 199, N-((1r,3r)-3-Methoxycyclobutyl)-2-(1-methyl-1H-imidazol-2-yl)-5-phenyl-6-(pyridin-4-yl)pyrrolo[2,1-f][1,2,4]triazin-4-amine]	D* (85-100% activation)	B (B = 26-45% inhibition)
COc1ccnc(Nc2nc(-c3nccn3C)nn3cc(-c4ccn(CCN)n4)c(C)c23)c1 [Compound 187, 6-(1-(2-Aminoethyl)-1H-pyrazol-3-yl)-N-(4-methoxypyridin-2-yl)-5-methyl-2-(1-methyl-1H-imidazol-2-yl)pyrrolo[2,1-f][1,2,4]triazin-4-amine]	A (1-25% inhibition)	A* (A* = 1-25% activation)
Cc1ccc(Nc2nc(-c3nccn3C)nn3cc(-c4ccn(C)n4)c(C)c23)nc1 [Compound 226, 5-Methyl-2-(1-methyl-1H-imidazol-2-yl)-6-(1-methyl-1H-pyrazol-3-yl)-N-(5-methylpyridin-2-yl)pyrrolo[2,1-f][1,2,4]triazin-4-amine]	A* (1-25% activation)	D (D = 76-100% inhibition)
CO[C@H]1C[C@H](Nc2nc(-c3nccn3C)nn3cc(-c4ccc(OCCN)cc4)c(-c4ccccc4)c23)C1.Cl [Compound 208, 6-(4-(2-Aminoethoxy)phenyl)-N-((1r,3r)-3-methoxycyclobutyl)-2-(1-methyl-1H-imidazol-2-yl)-5-phenylpyrrolo[2,1-f][1,2,4]triazin-4-amine hydrochloride salt]	C* (46-84% activation)	D (D = 76-100% inhibition)
COc1ccnc(Nc2nc(-c3nccn3CCNC(=O)CCCC[C@H]3SC[C@H]4NC(=O)N[C@H]43)nn3cc(-c4ccn(C)n4)c(C)c23)c1 [Compound 216, N-(2-(2-(4-((4-methoxypyridin-2-yl)amino)-5-methyl-6-(1-methyl-1H-pyrazol-3-yl)pyrrolo[2,1-f][1,2,4]triazin-2-yl)-1H-imidazol-1-yl)ethyl)-5-((3aR,4R,6aS)-2-oxohexahydro-1H-thieno[3,4-d]imidazol-4-yl)pentanamide]	C* (46-84% activation)	C* (C* = 46-75% activation)
COc1cccc(-c2cn3nc(-c4nccn4C)nc(N[C@H]4C[C@H](OC)C4)c3c2-c2ccccc2)c1OC [Compound 219, 6-(2,3-Dimethoxyphenyl)-N-((1r,3r)-3-methoxycyclobutyl)-2-(1-methyl-1H-imidazol-2-yl)-5-phenylpyrrolo[2,1-f][1,2,4]triazin-4-amine]	D (85-100% inhibition)	D (D = 76-100% inhibition)
COc1ccnc(Oc2nc(-c3nccn3C)nn3cc(-c4ccn(C)n4)c(C)c23)c1 [Compound 220, 4-((4-Methoxypyridin-2-yl)oxy)-5-methyl-2-(1-methyl-1H-imidazol-2-yl)-6-(1-methyl-1H-pyrazol-3-yl)pyrrolo[2,1-f][1,2,4]triazine]	A (1-25% inhibition)	C (C = 46-75% inhibition)
Cc1c(-c2ccn(C)n2)cn2nc(-c3nccn3C)nc(Nc3ccc(C(F)(F)F)cn3)c12 [Compound 233, 5-Methyl-2-(1-methyl-1H-imidazol-2-yl)-6-(1-methyl-1H-pyrazol-3-yl)-N-(5-(trifluoromethyl)pyridin-2-yl)pyrrolo[2,1-f][1,2,4]triazin-4-amine]	D* (85-100% activation)	B (B = 26-45% inhibition)
